Test results: PubChem BioAssay (NCI)
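Step 1: Grow cells in 96-well plates. Step 2: Expose to compound for 48 hours at 5 concentrations. Step 3: Interpolate endpoints linearly; if unreached, use highest concentration. Definition used: TGI = concentration required for complete inhibition of growth.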

How the values were obtained:
Assay in all cases: NCI anticancer screen, dose series, 48 h
SR leukemia = test system: SR leukemia
NCI-H460 lung = test system: NCI-H460 lung
SK-OV-3 ovarian = test system: SK-OV-3 ovarian
MDA-MB-231 breast = test system: MDA-MB-231 breast
HCT-116 colon = test system: HCT-116 colon
HT29 colon = test system: HT29 colon
PC-3 prostate = test system: PC-3 prostate
CAKI-1 renal = test system: CAKI-1 renal
ACHN renal = test system: ACHN renal
T-47D breast = test system: T-47D breast
SF-268 CNS = test system: SF-268 CNS
NCI/ADR-RES ovarian = test system: NCI/ADR-RES ovarian
HCC-2998 colon = test system: HCC-2998 colon
UO-31 renal = test system: UO-31 renal
NCI-H522 lung = test system: NCI-H522 lung
HS 578T breast = test system: HS 578T breast
SW-620 colon = test system: SW-620 colon
TK-10 renal = test system: TK-10 renal
BT-549 breast = test system: BT-549 breast
HL-60(TB) leukemia = test system: HL-60(TB) leukemia
MCF7 breast = test system: MCF7 breast
HCT-15 colon = test system: HCT-15 colon
M14 melanoma = test system: M14 melanoma
CCRF-CEM leukemia = test system: CCRF-CEM leukemia
SK-MEL-5 melanoma = test system: SK-MEL-5 melanoma
U251 CNS = test system: U251 CNS
MDA-N = test system: MDA-N
A549 NSCLC = test system: A549 NSCLC
SNB-19 CNS = test system: SNB-19 CNS
SF-295 CNS = test system: SF-295 CNS
786-0 renal = test system: 786-0 renal
SK-MEL-2 melanoma = test system: SK-MEL-2 melanoma
NCI-H226 lung = test system: NCI-H226 lung
UACC-62 melanoma = test system: UACC-62 melanoma
COLO 205 colon = test system: COLO 205 colon
IGROV1 ovarian = test system: IGROV1 ovarian
MALME-3M melanoma = test system: MALME-3M melanoma
LOX IMVI melanoma = test system: LOX IMVI melanoma
MOLT-4 leukemia = test system: MOLT-4 leukemia
RXF 393 renal = test system: RXF 393 renal
MDA-MB-435 = test system: MDA-MB-435
OVCAR-8 ovarian = test system: OVCAR-8 ovarian
SNB-75 CNS = test system: SNB-75 CNS
OVCAR-5 ovarian = test system: OVCAR-5 ovarian
SN12C renal = test system: SN12C renal
SK-MEL-28 melanoma = test system: SK-MEL-28 melanoma
K-562 leukemia = test system: K-562 leukemia
HOP-62 NSCLC = test system: HOP-62 NSCLC
KM12 colon = test system: KM12 colon
OVCAR-4 ovarian = test system: OVCAR-4 ovarian
RPMI-8226 leukemia = test system: RPMI-8226 leukemia
DU-145 prostate = test system: DU-145 prostate
OVCAR-3 ovarian = test system: OVCAR-3 ovarian
EKVX NSCLC = test system: EKVX NSCLC
UACC-257 melanoma = test system: UACC-257 melanoma
NCI-H23 lung = test system: NCI-H23 lung
HOP-92 NSCLC = test system: HOP-92 NSCLC

Which TGI (SR leukemia) does the source give for CCCCCC(=O)n1[nH]c(=O)n(-c2ccc(OC)cc2)c1=O here?
Its TGI is > 100 µM.

What about the TGI (NCI-H460 lung) of the same compound?
Its TGI is > 100 µM.

What about the TGI (SK-OV-3 ovarian) of the same compound?
The TGI was > 100 µM.

And the TGI (MDA-MB-231 breast)?
The TGI was > 100 µM.

What about the TGI (HCT-116 colon) of the same compound?
The TGI was > 100 µM.

And the TGI (HT29 colon)?
The TGI was > 100 µM.

What about the TGI (PC-3 prostate) of the same compound?
Its TGI is > 100 µM.

What about the TGI (CAKI-1 renal) of the same compound?
Its TGI is > 100 µM.

What about the TGI (ACHN renal) of the same compound?
The TGI was > 100 µM.

And the TGI (T-47D breast)?
Its TGI is > 100 µM.

And the TGI (SF-268 CNS)?
Its TGI is > 100 µM.

What about the TGI (NCI/ADR-RES ovarian) of the same compound?
The TGI was > 100 µM.

And the TGI (HCC-2998 colon)?
The TGI was > 100 µM.

And the TGI (UO-31 renal)?
The TGI was > 100 µM.

What about the TGI (NCI-H522 lung) of the same compound?
The TGI was > 100 µM.

And the TGI (HS 578T breast)?
The TGI was > 100 µM.

And the TGI (SW-620 colon)?
Its TGI is > 100 µM.

And the TGI (TK-10 renal)?
Its TGI is > 100 µM.

And the TGI (BT-549 breast)?
Its TGI is > 100 µM.

What about the TGI (HL-60(TB) leukemia) of the same compound?
Its TGI is > 100 µM.

And the TGI (MCF7 breast)?
Its TGI is > 100 µM.

What about the TGI (HCT-15 colon) of the same compound?
Its TGI is > 100 µM.

What about the TGI (M14 melanoma) of the same compound?
Its TGI is > 100 µM.

And the TGI (CCRF-CEM leukemia)?
The TGI was > 100 µM.

And the TGI (SK-MEL-5 melanoma)?
The TGI was > 100 µM.

What about the TGI (U251 CNS) of the same compound?
The TGI was > 100 µM.

And the TGI (MDA-N)?
The TGI was > 100 µM.

What about the TGI (A549 NSCLC) of the same compound?
Its TGI is > 100 µM.

What about the TGI (SNB-19 CNS) of the same compound?
Its TGI is > 100 µM.

What about the TGI (SF-295 CNS) of the same compound?
The TGI was > 100 µM.

And the TGI (786-0 renal)?
Its TGI is > 100 µM.

And the TGI (SK-MEL-2 melanoma)?
The TGI was > 100 µM.

And the TGI (NCI-H226 lung)?
Its TGI is > 100 µM.

And the TGI (UACC-62 melanoma)?
The TGI was > 100 µM.

And the TGI (COLO 205 colon)?
The TGI was > 100 µM.

And the TGI (IGROV1 ovarian)?
The TGI was > 100 µM.

And the TGI (MALME-3M melanoma)?
The TGI was > 100 µM.

What about the TGI (LOX IMVI melanoma) of the same compound?
Its TGI is > 100 µM.

And the TGI (MOLT-4 leukemia)?
The TGI was > 100 µM.

And the TGI (RXF 393 renal)?
Its TGI is > 100 µM.

And the TGI (MDA-MB-435)?
Its TGI is > 100 µM.

And the TGI (OVCAR-8 ovarian)?
The TGI was > 100 µM.

And the TGI (SNB-75 CNS)?
Its TGI is > 100 µM.

What about the TGI (OVCAR-5 ovarian) of the same compound?
The TGI was > 100 µM.

What about the TGI (SN12C renal) of the same compound?
The TGI was > 100 µM.

What about the TGI (SK-MEL-28 melanoma) of the same compound?
Its TGI is > 100 µM.

What about the TGI (K-562 leukemia) of the same compound?
The TGI was > 100 µM.

What about the TGI (HOP-62 NSCLC) of the same compound?
Its TGI is > 100 µM.

And the TGI (KM12 colon)?
Its TGI is > 100 µM.

And the TGI (OVCAR-4 ovarian)?
The TGI was > 100 µM.

And the TGI (RPMI-8226 leukemia)?
The TGI was > 100 µM.

What about the TGI (DU-145 prostate) of the same compound?
Its TGI is > 100 µM.

And the TGI (OVCAR-3 ovarian)?
The TGI was > 100 µM.

What about the TGI (EKVX NSCLC) of the same compound?
The TGI was > 100 µM.

What about the TGI (UACC-257 melanoma) of the same compound?
Its TGI is > 100 µM.

And the TGI (NCI-H23 lung)?
The TGI was > 100 µM.

With COc1ccc(-n2sc3ncc(C)cc3c2=O)cc1 as the compound, how does the TGI (SR leukemia) read?
The TGI was > 100 µM.

What about the TGI (NCI-H460 lung) of the same compound?
Its TGI is > 100 µM.

What about the TGI (SK-OV-3 ovarian) of the same compound?
The TGI was > 100 µM.

And the TGI (MDA-MB-231 breast)?
Its TGI is 30.7 µM.

What about the TGI (HCT-116 colon) of the same compound?
Its TGI is 34.5 µM.

And the TGI (HT29 colon)?
Its TGI is 31.9 µM.

What about the TGI (PC-3 prostate) of the same compound?
The TGI was 29 µM.

And the TGI (ACHN renal)?
The TGI was 32.3 µM.

What about the TGI (T-47D breast) of the same compound?
The TGI was 39.4 µM.

What about the TGI (SF-268 CNS) of the same compound?
Its TGI is 40.6 µM.

What about the TGI (NCI/ADR-RES ovarian) of the same compound?
Its TGI is 64.4 µM.

What about the TGI (HCC-2998 colon) of the same compound?
Its TGI is > 100 µM.

And the TGI (UO-31 renal)?
The TGI was 31.4 µM.

What about the TGI (NCI-H522 lung) of the same compound?
The TGI was 45.8 µM.

What about the TGI (HS 578T breast) of the same compound?
Its TGI is 83.7 µM.

And the TGI (SW-620 colon)?
The TGI was 89.6 µM.

And the TGI (TK-10 renal)?
Its TGI is 33.2 µM.

And the TGI (BT-549 breast)?
Its TGI is 35.6 µM.

And the TGI (MCF7 breast)?
Its TGI is 44.2 µM.

What about the TGI (HCT-15 colon) of the same compound?
Its TGI is 38.7 µM.

And the TGI (M14 melanoma)?
The TGI was 32.7 µM.

What about the TGI (CCRF-CEM leukemia) of the same compound?
Its TGI is 37.5 µM.

And the TGI (SK-MEL-5 melanoma)?
The TGI was 26 µM.

What about the TGI (U251 CNS) of the same compound?
The TGI was 52.6 µM.

What about the TGI (MDA-N) of the same compound?
Its TGI is 31.8 µM.

And the TGI (A549 NSCLC)?
Its TGI is 44.7 µM.

And the TGI (SNB-19 CNS)?
The TGI was > 100 µM.

What about the TGI (SF-295 CNS) of the same compound?
The TGI was > 100 µM.

What about the TGI (786-0 renal) of the same compound?
Its TGI is 31 µM.

And the TGI (SK-MEL-2 melanoma)?
Its TGI is 52.7 µM.

And the TGI (NCI-H226 lung)?
Its TGI is 84.6 µM.

What about the TGI (UACC-62 melanoma) of the same compound?
The TGI was 34.9 µM.

And the TGI (COLO 205 colon)?
The TGI was 29.5 µM.

What about the TGI (IGROV1 ovarian) of the same compound?
Its TGI is > 100 µM.

And the TGI (MALME-3M melanoma)?
The TGI was 38.5 µM.

And the TGI (MOLT-4 leukemia)?
Its TGI is > 100 µM.

And the TGI (MDA-MB-435)?
Its TGI is 40.5 µM.

What about the TGI (HOP-92 NSCLC) of the same compound?
The TGI was 42.1 µM.

And the TGI (OVCAR-8 ovarian)?
The TGI was 35.2 µM.

What about the TGI (OVCAR-5 ovarian) of the same compound?
The TGI was 34.7 µM.

And the TGI (SN12C renal)?
The TGI was 35.4 µM.

What about the TGI (SK-MEL-28 melanoma) of the same compound?
Its TGI is 73 µM.

What about the TGI (K-562 leukemia) of the same compound?
The TGI was > 100 µM.

And the TGI (HOP-62 NSCLC)?
Its TGI is 45.9 µM.

And the TGI (KM12 colon)?
Its TGI is 29.6 µM.

And the TGI (OVCAR-4 ovarian)?
Its TGI is > 100 µM.

What about the TGI (RPMI-8226 leukemia) of the same compound?
The TGI was 67.2 µM.

And the TGI (DU-145 prostate)?
The TGI was 44 µM.

And the TGI (OVCAR-3 ovarian)?
Its TGI is 32.4 µM.

What about the TGI (EKVX NSCLC) of the same compound?
The TGI was 33.6 µM.

And the TGI (NCI-H23 lung)?
The TGI was 57.7 µM.
